The target of assay [1] is soluble human BACE-1 catalytic domain (Homo sapiens (Human), UniProt P56817). The experiment in a line: BACE-1 Ki Assay (BACE-1 HTRF FRET Assay). The format is biochemical. As to conditions: for Ki: Ki calculated from IC50 using the Cheng-Prusoff equation, QSY7-APPswe-Eu substrate, pH 5.0, read-out: BACE1 Ki; for inhibition at 10 µM: read-out: BACE-1 Inh. @ 10 μM. From the text: The following reagents were used in this assay. Na^+-Acetate pH 5.0; 1% Brij-35; Glycerol; Dimethyl Sulfoxide (DMSO); Recombinant human soluble BACE-1 catalytic domain (>95% pure); APP Swedish mutant peptide substrate (QSY7-APP^swe-Eu): QSY7-[…]-Europium-amide.
Chain of soluble human BACE-1 catalytic domain (P56817 75-416): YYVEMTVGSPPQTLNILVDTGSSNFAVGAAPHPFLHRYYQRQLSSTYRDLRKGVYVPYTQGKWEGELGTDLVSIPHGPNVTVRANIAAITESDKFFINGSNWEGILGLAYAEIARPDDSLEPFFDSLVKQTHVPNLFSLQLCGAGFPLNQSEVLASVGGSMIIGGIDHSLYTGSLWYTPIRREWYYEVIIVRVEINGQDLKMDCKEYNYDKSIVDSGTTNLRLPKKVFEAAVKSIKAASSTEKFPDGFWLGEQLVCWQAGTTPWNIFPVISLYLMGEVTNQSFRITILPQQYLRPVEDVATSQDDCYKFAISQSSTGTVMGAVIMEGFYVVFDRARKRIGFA
A homogeneous time-resolved FRET assay can be used to determine IC50 values for inhibitors of the soluble human BACE-1 catalytic domain. This assay monitors the increase of 620 nm fluorescence that resulted from BACE-1 cleavage of an APPswedish APP^swe mutant peptide FRET substrate (QSY7-[…]-Europium-amide). This substrate contains an N-terminal QSY7 moiety that serves as a quencher of the C-terminal Europium fluorophore (620 nm Em). In the absence of enzyme activity, 620 nm fluorescence is low in the assay and increased linearly over 3 hours in the presence of uninhibited BACE-1 enzyme. Inhibition of BACE-1 cleavage of the QSY7-APP^swe-Eu substrate by inhibitors is manifested as a suppression of 620 nm fluorescence.
Reactions are initiated by addition of 10 μl of 600 nM QSY7-APP^swe-Eu substrate (200 nM final) to give a final reaction volume of 30 μl in a 384 well Nunc HTRF plate. The reactions are incubated at 30° C. for 1.5 hours. […] Inhibitor IC50 values are derived from non-linear regression analysis of concentration response curves. Ki values are then calculated from IC50 values using the Cheng-Prusoff equation using a previously determined […] of 8 μM for the QSY7-APP^swe-Eu substrate at BACE-1. The example compounds of the invention were measured in this assay.

For assay [2], the target named is purified human autoBACE-2 (Homo sapiens (Human), UniProt Q9Y5Z0). The assay is described as follows: BACE-2 Assay (BACE-HTRF assay). For orientation: TR-FRET usually uses a lanthanide donor and a delayed reading to cut background.
Chain of purified human autoBACE-2 (Q9Y5Z0 63-473 limits assumed): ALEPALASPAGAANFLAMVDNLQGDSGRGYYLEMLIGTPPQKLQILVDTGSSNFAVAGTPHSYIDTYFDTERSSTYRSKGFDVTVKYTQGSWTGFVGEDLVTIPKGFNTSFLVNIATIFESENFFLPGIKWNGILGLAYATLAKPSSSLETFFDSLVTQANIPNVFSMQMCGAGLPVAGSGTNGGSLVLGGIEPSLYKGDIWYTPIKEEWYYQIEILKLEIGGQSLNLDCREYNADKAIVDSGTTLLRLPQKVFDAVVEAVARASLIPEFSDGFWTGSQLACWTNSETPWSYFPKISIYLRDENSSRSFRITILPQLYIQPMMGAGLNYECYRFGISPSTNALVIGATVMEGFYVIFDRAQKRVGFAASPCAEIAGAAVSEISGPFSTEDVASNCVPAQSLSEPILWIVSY
Experimental: Inhibitor IC50s at purified human autoBACE-2 were determined in a time-resolved endpoint proteolysis assay that measures hydrolysis of the QSY7-[sequence]-Eu-amide FRET peptide substrate (BACE-HTRF assay). […] Inhibitor compounds, prepared at 3× the desired final concentration in 1×BACE assay buffer (20 mM sodium acetate pH 5.0, 10% glycerol, 0.1% Brij-35) supplemented with 7.5% DMSO are pre-incubated with an equal volume of autoBACE-2 enzyme diluted in 1×BACE assay buffer (final enzyme concentration 1 nM) in black 384-well NUNC plates for 30 minutes at 30° C. […] DMSO is present at 5% final concentration in the assay. Following laser excitation of sample wells at 320 nm, the fluorescence signal at 620 nm was collected for 400 ms following a 50 s delay on a RUBYstar HTRF plate reader (BMG Labtechnologies). Raw RFU data was normalized to maximum (1.0 nM BACE/DMSO) and minimum (no enzyme/DMSO) RFU values. […] The Ki values were calculated from the IC50 using the Cheng-Prusoff equation.

The term Ki denotes a measure of affinity in units of concentration, obtained from inhibition or displacement.

`CN1C(=N)N[C@@]2(c3cc(NC(=O)c4ccc(F)cn4)ccc3F)CCC[C@H]2S1(=O)=O` [Example 1]: the Ki in assay [1] was 10 nM.
On to `CN1C(=N)N[C@@]2(c3cc(NC(=O)c4cnc(OCCF)cn4)ccc3F)CCC[C@H]2S1(=O)=O` [Example 2, N-(4-fluoro-3-((4aR,7aR)-3-imino-2-methyl-1,1-dioxidohexahydrocyclopenta[e][1,2,4]thiadiazin-4a(2H)-yl)phenyl)-5-(2-fluoroethoxy)pyrazine-2-carboxamide], for which, in assay [1], the inhibition constant (Ki) was 18 nM.
With `CN1C(=N)N[C@@]2(c3cc(NC(=O)c4ccc(OC(F)F)cn4)ccc3F)CCC[C@H]2S1(=O)=O` [Example 3, 5-(difluoromethoxy)-N-(4-fluoro-3-((4aR,7aR)-3-imino-2-methyl-1,1-dioxidohexahydrocyclopenta[e][1,2,4]thiadiazin-4a(2H)-yl)phenyl)picolinamide], the Ki in assay [1] is 4 nM.
For `CN1C(=N)N[C@@]2(c3cc(NC(=O)c4ccc(Cl)cn4)ccc3F)CCC[C@H]2S1(=O)=O` [Example 4, 5-chloro-N-(4-fluoro-3-((4aR,7aR)-3-imino-2-methyl-1,1-dioxidohexahydrocyclopenta[e][1,2,4]thiadiazin-4a(2H)-yl)phenyl)picolinamide], the Ki in assay [1] was 3 nM.
Turning to `CN1C(=N)N[C@@]2(c3cc(NC(=O)c4ccc(C#N)cn4)ccc3F)CCC[C@H]2S1(=O)=O` [Example 5, 5-cyano-N-(4-fluoro-3-((4aR,7aR)-3-imino-2-methyl-1,1-dioxidohexahydrocyclopenta[e][1,2,4]thiadiazin-4a(2H)-yl)phenyl)picolinamide], the Ki in assay [1] is 4 nM.
As to `Cc1cnc(C(=O)Nc2ccc(F)c([C@]34CCC[C@H]3S(=O)(=O)N(C)C(=N)N4)c2)cn1` [Example 6, N-(4-fluoro-3-((4aR,7aR)-3-imino-2-methyl-1,1-dioxidohexahydrocyclopenta[e][1,2,4]thiadiazin-4a(2H)-yl)phenyl)-5-methylpyrazine-2-carboxamide], in assay [1], the Ki is 126 nM.
With `Cc1ccc(C(=O)Nc2ccc(F)c([C@]34CCC[C@H]3S(=O)(=O)N(C)C(=N)N4)c2)nc1` [Example 7, N-(4-fluoro-3-((4aR,7aR)-3-imino-2-methyl-1,1-dioxidohexahydrocyclopenta[e][1,2,4]thiadiazin-4a(2H)-yl)phenyl)-5-methylpicolinamide], the Ki in assay [1] was 42 nM.
For the molecule `CN1C(=N)N[C@@]2(c3cc(NC(=O)c4ncc(Cl)cc4F)ccc3F)CCC[C@H]2S1(=O)=O` [Example 8, 5-chloro-3-fluoro-N-(4-fluoro-3-((4aR,7aR)-3-imino-2-methyl-1,1-dioxidohexahydrocyclopenta[e][1,2,4]thiadiazin-4a(2H)-yl)phenyl)picolinamide], the Ki in assay [1] is 4 nM.
Take `CN1C(=N)N[C@@]2(c3cc(NC(=O)c4ncc(F)cc4F)ccc3F)CCC[C@H]2S1(=O)=O` [Example 9, 3,5-difluoro-N-(4-fluoro-3-((4aR,7aR)-3-imino-2-methyl-1,1-dioxidohexahydrocyclopenta[e][1,2,4]thiadiazin-4a(2H)-yl)phenyl)picolinamide]: the Ki in assay [1] was 22 nM.
Turning to `Cc1cc(F)cnc1C(=O)Nc1ccc(F)c([C@]23CCC[C@H]2S(=O)(=O)N(C)C(=N)N3)c1` [Example 10, 5-fluoro-N-(4-fluoro-3-((4aR,7aR)-3-imino-2-methyl-1,1-dioxidohexahydrocyclopenta[e][1,2,4]thiadiazin-4a(2H)-yl)phenyl)-3-methylpicolinamide], the Ki in assay [1] was 10 nM.
Still for that read-out and setting: the result for `COc1cnc(C(=O)Nc2ccc(F)c([C@]34CCC[C@H]3S(=O)(=O)N(C)C(=N)N4)c2)c(C)c1` [Example 11, N-(4-fluoro-3-((4aR,7aR)-3-imino-2-methyl-1,1-dioxidohexahydrocyclopenta[e][1,2,4]thiadiazin-4a(2H)-yl)phenyl)-5-methoxy-3-methylpicolinamide] reads 16 nM; that for `COc1cnc(C(=O)Nc2ccc(F)c([C@]34CCC[C@H]3S(=O)(=O)N(C)C(=N)N4)c2)c(C)n1` [Example 12, N-(4-fluoro-3-((4aR,7aR)-3-imino-2-methyl-1,1-dioxidohexahydrocyclopenta[e][1,2,4]thiadiazin-4a(2H)-yl)phenyl)-5-methoxy-3-methylpyrazine-2-carboxamide], 23 nM.
As for `CN1C(=N)N[C@@]2(c3cc(NC(=O)c4cnc(C(F)(F)F)cn4)ccc3F)CCC[C@H]2S1(=O)=O` [Example 14, N-(4-fluoro-3-((4aR,7aR)-3-imino-2-methyl-1,1-dioxidohexahydrocyclopenta[e][1,2,4]thiadiazin-4a(2H)-yl)phenyl)-5-(trifluoromethyl)pyrazine-2-carboxamide], the Ki in assay [1] was 25 nM.
As for `COc1ccc(C(=O)Nc2ccc(F)c([C@]34CCC[C@H]3S(=O)(=O)N(C)C(=N)N4)c2)nc1` [Example 15, N-(4-fluoro-3-((4aR,7aR)-3-imino-2-methyl-1,1-dioxidohexahydrocyclopenta[e][1,2,4]thiadiazin-4a(2H)-yl)phenyl)-5-methoxypicolinamide], in assay [1], the Ki was 16 nM.
For `CN1C(=N)N[C@@]2(c3cc(NC(=O)c4cnc(OCC(F)(F)F)cn4)ccc3F)CCC[C@H]2S1(=O)=O` [Example 16, N-(4-fluoro-3-((4aR,7aR)-3-imino-2-methyl-1,1-dioxidohexahydrocyclopenta[e][1,2,4]thiadiazin-4a(2H)-yl)phenyl)-5-(2,2,2-trifluoroethoxy)pyrazine-2-carboxamide], the Ki in assay [1] is 7 nM.
Turning to `COc1cnc(C(=O)Nc2ccc(F)c([C@]34CCC[C@H]3S(=O)(=O)N(C)C(=N)N4)c2)cn1` [Example 17, N-(4-fluoro-3-((4aR,7aR)-3-imino-2-methyl-1,1-dioxidohexahydrocyclopenta[e][1,2,4]thiadiazin-4a(2H)-yl)phenyl)-5-methoxypyrazine-2-carboxamide], in assay [1], the Ki was 11 nM.
Consider `C#CCOc1ccc(C(=O)Nc2ccc(F)c([C@]34CCC[C@H]3S(=O)(=O)N(C)C(=N)N4)c2)nc1` [Example 18, N-(4-fluoro-3-((4aR,7aR)-3-imino-2-methyl-1,1-dioxidohexahydrocyclopenta[e][1,2,4]thiadiazin-4a(2H)-yl)phenyl)-5-(prop-2-yn-1-yloxy)picolinamide], for which the Ki in assay [1] was 3 nM.
As to `COc1cnc2c(Nc3ccc(F)c([C@]45CCC[C@H]4S(=O)(=O)N(C)C(=N)N5)c3)nccc2c1` [Example 19], the Ki in assay [1] is 31 nM.
As to `COc1cnc2c(Nc3ccc(F)c([C@]45CCC[C@H]4S(=O)(=O)N(C)C(=N)N5)c3)nccc2n1` [Example 20, (4aR,7aR)-4a-(2-fluoro-5-(2-methoxypyrido[3,4-b]pyrazin-5-ylamino)phenyl)-3-imino-2-methyloctahydrocyclopenta[e][1,2,4]thiadiazine 1,1-dioxide], the Ki in assay [1] is 36 nM.
With `COc1cnc2c(Nc3ccc(F)c([C@]45CCC[C@H]4S(=O)(=O)N(C)C(=N)N5)c3)ccnc2c1` [Example 21], the Ki in assay [1] was 206 nM.
Consider `CN1C(=N)NC2(c3cc(NC(=O)c4ccc(Cl)cn4)ccc3F)CC2S1(=O)=O` (stereo not shown) [Example 32, 5-chloro-N-(4-fluoro-3-(4-imino-3-methyl-2,2-dioxido-2-thia-3,5-diazabicyclo[4.1.0]heptan-6-yl)phenyl)picolinamide], for which the Ki in assay [1] was 2520 nM.
`CN1C(=N)N[C@@]2(c3cc(Br)ccc3F)CCC[C@H]2S1(=O)=O` [Example 33, (4aR,7aR)-4a-(5-bromo-2-fluorophenyl)-3-imino-2-methyloctahydrocyclopenta[e][1,2,4]thiadiazine 1,1-dioxide]: the inhibition at 10 µM in assay [1] and in assay [2] (read-out: BACE-2 Inh. @ 10 μM) was 18% each time.
Turning to `CN1C(=N)N[C@@]2(c3cc(Oc4ncccc4F)ccc3F)CCC[C@H]2S1(=O)=O` [Example 34, (4aR,7aR)-4a-(2-fluoro-5-((3-fluoropyridin-2-yl)oxy)phenyl)-3-imino-2-methyloctahydrocyclopenta[e][1,2,4]thiadiazine 1,1-dioxide], the Ki was 89 nM in assay [1] and 75 nM in assay [2].
For `COCC(=O)Nc1ccc(F)c(C23CCCC2S(=O)(=O)N(C)C(=N)N3)c1` (stereo not shown) [Example 35, N-(4-fluoro-3-(3-imino-2-methyl-1,1-dioxidohexahydrocyclopenta[e][1,2,4]thiadiazin-4a(2H)-yl)phenyl)-2-methoxy acetamide], the Ki in assay [1] is 368 nM.
As for `CN1C(=N)NC2(c3cc(NC(=O)C(F)F)ccc3F)CCCC2S1(=O)=O` (stereo not shown) [Example 36], the Ki in assay [1] is 1080 nM.
Regarding `CN1C(=N)NC2(c3ccccc3F)CCCC2S1(=O)=O` (stereo not shown) [Example 37, 4a-(2-fluorophenyl)-3-imino-2-methyloctahydrocyclopenta[e][1,2,4]thiadiazine 1,1-dioxide], in assay [1], the inhibition at 10 µM is 43%.

The values above are taken from US10329291B2, “C5-C6-carbocyclic fused iminothiadiazine dioxides as BACE inhibitors, compositions, and their use” (Merck Sharp & Dohme Corp., priority 2015, dated 2019).
